Results from publication PMC12319374, “Efficient and Rapid Arylation of NH₂‐Unprotected Bromobisindole Ethanamines via Suzuki‐Miyaura Coupling: Generating New Leads Against Leishmania” (Chemistry (Weinheim an Der Bergstrasse, Germany), 2025).
Several values for one entry are separate records, joined by “and”; a condition that tells them apart may be missing. Equal entries are not always repeated. Entries after “also recorded” stand apart in the source; their conditions may differ.

What was measured:
[1] = system: L. infantum promastigotes; details: cited from earlier work; for IC50: read-out: IC50 against L. infantum promastigotes
[2] = Evaluation of cytotoxicity on THP-1 cells (MTS); assay type: cell-based, human; details: human; 72 h, scalar dilutions 1:2 from 100 to 3.12 µM; mean (95% CI); read-out: THP‐1 CC50 (µM) (95% CI)
Description: (§1) Finally, eighteen compounds were first screened for efficacy against L. infantum MHOM/TN/80/IPT1 promastigotes at a single dose of 20 µM for 72 hours.
(§2) L. infantum MHOM/TN/80/IPT1 (WHO international reference strain) was purchased from ATCC (ATCC® 50134™) and was cultured in Evans's Modified Tobie Medium (EMTM) at 26–28 °C. To test the compounds, parasites were resuspended in RPMI-PY medium as described previously. The human monocytic cell line THP-1 (ECACC 88081201) was cultured in RPMI-1640 medium supplemented with 10% heat-inactivated Fetal Bovine Serum (FBS), 100 μg/ml streptomycin, […] and maintained in a humidified incubator at 37 °C and 5% CO2. All the cell culture reagents were purchased from Sigma-Aldrich (St. Louis, MO, USA).
(§3) The cytotoxicity of the compounds was assessed on THP-1 cells seeded at a density of 5 × 10^5 cells per mL, 100μL/well in a 96-well plate and treated for 72 h with 20 ng/mL phorbol myristic acid (PMA) to induce differentiation into macrophages like cells. After cell adhesion to the plate, each molecule was tested at 4, 20 and 100 μM for 72 h at 37 °C.
(§4) Three selected compounds were further evaluated at different concentration, obtained from scalar dilutions 1:2 (from 100 µM to 3.12 μM) for 72 h at 37°C. The negative control (untreated THP-1 cells) and the positive control (miltefosine) were included in each experiment. Each condition was carried out in duplicate. To evaluate the compounds cytotoxicity, the CellTiter 96H Aqueous Non-Radioactive Cell Proliferation Assay (Promega), was used as described before. […]

THP-1 cells = experiment: Evaluation of cytotoxicity on THP-1 cells (MTS); assay type: cell-based, human; details: for Cytotoxicity on THP‐1 (100, 20, 4 µM) (%): 72 h, PMA-differentiated THP-1; for SI (Selectivity index = CC50/IC50): CC50 THP-1 (72 h) / IC50 L. infantum promastigotes (72 h)
Description: as §1, §2, §3, §4

[3] = system: intracellular L. infantum amastigotes; experiment: Anti-amastigote assay on infected THP-1 cells; assay type: cell-based, Leishmania infantum; details: 2 µM, 72 h treatment, differentiated THP-1 infected 24 h
Description: Figure 2 Effect of 3ca, 3af, and 3aq on intracellular L. infantum amastigotes. Differentiated THP‐1 cells were infected for 24 hours at 37°C; then, the different compounds were added at 2 µM, and the efficacy on intracellular amastigotes was calculated after 72 hours of treatment. Miltefosine was used as a positive control. (A) Percentages of infection are presented as mean ± SD. Ordinary one‐way ANOVA with Dunnett's multiple comparisons test. *p ≤ 0.05, **p ≤ 0.01 *** p ≤ 0.001. (B) Representative merged images showing THP‐1 cells stained with Hoechst dye (blue) and Leishmania amastigotes stained with CFSE (green).
The activity of compounds 3af, 3ca, and 3aq against intracellular amastigotes was evaluated in THP-1 infected cells. Briefly, THP-1 cells were seeded in a 12-well plate with a density of 3 × 10^5 cells/well and, to induce differentiation into macrophage-like cells, were treated with 20 ng/mL phorbol myristic acid (PMA) for 48 h. After differentiation, cells were infected for 24 h with L. infantum MHOM/TN/80/IPT1 promastigotes stained with carboxyfluorescein succinimidyl ester (eBioscience™ CFSE, Invitrogen) as described in reference, with a parasite-to-cell ratio of 10:1. Non-internalized promastigotes were then removed through medium replacement, and infected cells were treated with 3af, 3ca, and 3aq or with the positive control miltefosine for 72 h at concentrations of 2, 10, and 20 μM. To monitor the infection, cells were washed, formaldehyde/methanol fixed, stained with Hoechst dye, and observed with a fluorescence microscope at 5X or 10X magnification. For each field, two images were acquired: one with excitation at 340-390 nm (for Hoechst dye) and the other with excitation at 460-495 nm (for CFSE). Automated cell counting of single-color images was performed with ImageJ software to monitor the rate of infection, which was determined by normalizing the amastigote count from each green (CFSE) image to the THP-1 cell count from the corresponding blue (Hoechst) image. At least 500 THP-1 cells were counted for each condition. […]

[4] = system: L. infantum MHOM/TN/80/IPT1 promastigotes; experiment: L. infantum promastigotes viability assay (MTS); assay type: cell-based, Leishmania infantum; details: 72 h; for IC50 / inhibition at 20 µM: Leishmania infantum; for IC50: scalar dilutions 2:3 from 20 to 1.17 µM, mean (95% CI); for inhibition at 20 µM / Inhibition of L. infantum at 20 µM (%): single dose 20 µM
Description: as §1, §2
Late log/stationary phase L. infantum promastigotes were resuspended in RPMI-PY medium at a density of 2.5×10^6 parasites/mL in 96-well plates (100μL/well). The anti-parasitic activity of the eighteen compounds of the library was initially investigated at a single dose of 20 μM for 72 h at 26 °C. […] Not treated parasites were included as negative control. As positive control, the anti-leishmanial drug miltefosine (Sigma-Aldrich, Milan, Italy) was used. Each condition was carried out in duplicate. To evaluate the promastigotes viability, the CellTiter 96H Aqueous Non-Radioactive Cell Proliferation Assay (Promega), based on the ability of viable cells to convert a soluble tetrazolium salt [3-(4.5-dimethylthiazol-2-yl)-5-(3-carboxymethoxy-phenyl)-2-(4-sulfophenyl)-2H-tetrazolium. MTS] to a formazan product, was performed. To this end, 20 μL of MTS/PMS (phenazinemethosulfate, Sigma-Aldrich) was added to 100 μL of culture medium and incubated at 26°C until formazan production. Absorbance was recorded on a Microplate Reader (Infinite® F50 Plus, Tecan) at 492 nm. The IC50 values were calculated using nonlinear regression curves in GraphPad Prism 8.0 (GraphPad Software,Inc., San Diego, CA). The equation used for data fitting was Y= 100/(1 + 10∧((Log IC50 −X)*HillSlope)) (hillslope not constrained), where X is the log of concentration and Y is the normalized response. […]

[5] = target: L. donovani DNA topoisomerase I; design: method as in PMID 17922678; details: read-out: IC50 (DNA topoisomerase I poison); cited from earlier work
L. donovani = system: L. donovani; design: method as in PMID 23517732; details: read-out: IC50 against L. donovani; cited from earlier work
[6] = system: human macrophage‐type THP‐1 cell; design: method as in PMID 38870204; details: cited from earlier work
Leishmania infection = system: Leishmania infection; design: method as in PMID 38870204; details: mouse infection model; cited from earlier work
[7] = design: method as in PMID 38870204; details: cited from earlier work
mammalian cells = system: mammalian cells; design: method as in PMID 34984300; details: cited from earlier work

## NCC(c1c[nH]c2cc(Br)ccc12)c1c[nH]c2cc(Br)ccc12 [1a, 2,2‐bis(6‐bromo‐1H‐indol‐3‐yl) ethanamine]
[1]
  Activity against L. infantum: active

## C=Cc1ccc(-c2ccc3c(C(CN)c4c[nH]c5cc(-c6ccc(C=C)cc6)ccc45)c[nH]c3c2)cc1 [3af, 2,2-bis(6-(4-vinylphenyl)-1H-indol-3-yl)ethan-1-amine]
[2]
  CC50 at 72 h: 24 µM
THP-1 cells; 4 µM
  Cytotoxicity on THP‐1 (100, 20, 4 µM) (%): −14%
THP-1 cells; 20 µM
  Cytotoxicity on THP‐1 (100, 20, 4 µM) (%): 97%
THP-1 cells; 100 µM
  Cytotoxicity on THP‐1 (100, 20, 4 µM) (%): 78%
THP-1 cells
  SI (Selectivity index = CC50/IC50): 21.8
[3]
  Effect on infection (intracellular amastigotes): significant reduction in the infection; also recorded: significant activity
[4]
  IC50: 1.1 µM
  inhibition at 20 µM: > 98%
  Inhibition of L. infantum at 20 µM (%): 98.7%

## NCC(c1c[nH]c2cc(-c3cccc4[nH]ccc34)ccc12)c1c[nH]c2cc(-c3cccc4[nH]ccc34)ccc12 [3aq, 2,2-di(1H,1'H-[4,6'-biindol]-3'-yl)ethan-1-amine]
[2]
  CC50 at 72 h: 14.6 µM
THP-1 cells; 4 µM
  Cytotoxicity on THP‐1 (100, 20, 4 µM) (%): −16%
THP-1 cells; 20 µM
  Cytotoxicity on THP‐1 (100, 20, 4 µM) (%): 72.9% and 73%
THP-1 cells; 100 µM
  Cytotoxicity on THP‐1 (100, 20, 4 µM) (%): 89%
THP-1 cells
  SI (Selectivity index = CC50/IC50): 5.2
[3]
  Effect on infection (intracellular amastigotes): significant reduction in the infection; also recorded: significant activity
[4]
  IC50: 2.8 µM
  inhibition at 20 µM: 96.9%

## NCC(c1c[nH]c2c(-c3ccccc3)cccc12)c1c[nH]c2c(-c3ccccc3)cccc12 [3ca, 2,2-bis(7-phenyl-1H-indol-3-yl)ethan-1-amine]
[2]
  CC50 at 72 h: 18.1 µM
THP-1 cells; 4 µM
  Cytotoxicity on THP‐1 (100, 20, 4 µM) (%): −19%
THP-1 cells; 20 µM
  Cytotoxicity on THP‐1 (100, 20, 4 µM) (%): 98%
THP-1 cells; 100 µM
  Cytotoxicity on THP‐1 (100, 20, 4 µM) (%): 89%
THP-1 cells
  SI (Selectivity index = CC50/IC50): 10.7
[3]
  Effect on infection (intracellular amastigotes): significant reduction in the infection; also recorded: significant activity
[4]
  IC50: 1.7 µM
  inhibition at 20 µM: > 98%
  Inhibition of L. infantum at 20 µM (%): 98.0%

## c1ccc2c(Cc3c[nH]c4ccccc34)c[nH]c2c1 [DIM, 3,3′‐Diindolylmethane]
[5]
  IC50: 1.2 µM

## O=[N+]([O-])c1ccc(C(c2c[nH]c3ccc(I)cc23)c2c[nH]c3ccc(I)cc23)cc1 [II]
L. donovani
  IC50: < 10 µM

## Clc1ccc(CNCC(c2c[nH]c3cc(Br)ccc23)c2c[nH]c3cc(Br)ccc23)cc1 [I]
[6]
  CC50: 11.7 µM
[1]
  IC50: 2.7 µM

## CCOC(=O)c1c(C(=O)OC)cn(CC(c2cn(C)c3ccccc23)c2cn(C)c3ccccc23)c1C [URB1483]
Leishmania infection
  Outcome of in vivo studies: failed
[7]
  Water solubility: poor
[1]
  IC50: 3.7 µM
Mammalian cells
  Cytotoxicity in mammalian cells: no quantifiable cytotoxicity
